In patent US20260124192A1, “COMPOUNDS, COMPOSITIONS, AND METHODS OF TREATING RNA VIRAL INFECTIONS” (priority 2024, published 2026):

Test system: CoV229E
Experiment: Anti-Coronavirus 229E cytoprotection (CPE) assay, MRC-5 (Method 3)
Assay type: cell-based, human Coronavirus 229E
Conditions: @ 1.58 μM; MRC-5

For Cc1c(-c2ccc(O)cc2)n(Cc2ccc(OCCC3CCCCC3)cc2)c2ccc(O)cc12 [MCAA-04], the “CoV229E - percent effect” value was 25% @.

Same assay, conditions: @ 5 μM; MRC-5

In order of rising “CoV229E - percent effect” value:
1. Fc1ccc(-c2cc3sccc3n2Cc2ccc(OCCC3CCCCC3)cc2)cc1 [MCAA-07]  11% @
2. Nc1cccc2nc(-c3ccc(F)cc3)n(Cc3ccc(OCCC4CCCCC4)cc3)c12 [MCAA-09]  13% @
3. O=C(O)c1ccc(-c2c(CC3CCCC3)c3ccc(F)cc3n2Cc2ccc(OCCC3CCCCC3)cc2)cc1 [MCAA-03]  24% @
4. O=[N+]([O-])c1cccc2nc(-c3ccc(F)cc3)n(Cc3ccc(OCCC4CCCCC4)cc3)c12 [MCAA-14]  31% @
5. Nc1cccc2nc(-c3ccc(F)cc3)n(Cc3ccc(OCCN4CCCCC4)cc3)c12 [MCAA-08]  33% @

Same assay, conditions: Human coronavirus 229E, MRC5, […], read-out: CoV229E - EC50 (μM)

Compound CCC(CC)COC(=O)[C@H](C)N[P@](=O)(OC[C@H]1O[C@@](C#N)(c2ccc3c(N)ncnn23)[C@H](O)[C@@H]1O)Oc1ccccc1 [Remdesivir, reference compound] has an EC50 of 0.14 µM.

Same assay, conditions: Human coronavirus 229E, MRC5, […], read-out: CoV229E - EC50 (μM), MRC-5; XTT cytoprotection; six days

In order of rising EC50:
1. Fc1ccc(-c2cc3sccc3n2Cc2ccc(OCCN3CCCCC3)cc2)cc1 [MCAA-06]  0.29 µM
2. O=C(O)c1ccc(-c2c(CC3CCCC3)c3ccc(F)cc3n2Cc2ccc(OCCN3CCCCC3)cc2)cc1 [MCAA-02]  2.78 µM

Test system: HCV genotype 1b replicon
Experiment: microbe, parasite or virus in culture
Assay type: cell-based, Hepatitis C Virus
Conditions: @ 10 μM; Huh-luc/neo-ET replicon

In order of falling “HCV 1b - percent effect” value:
1. O=[N+]([O-])c1cccc2nc(-c3ccc(F)cc3)n(Cc3ccc(OCCC4CCCCC4)cc3)c12 [MCAA-14]  34% @
2. Fc1ccc(-c2cc3sccc3n2Cc2ccc(OCCC3CCCCC3)cc2)cc1 [MCAA-07]  30% @

Same assay, conditions: Hepatitis C virus; Huh-luc/neo-ET replicon; 72 hours; luciferase; read-out: HCV 1b - EC50

First: Nc1cccc2nc(-c3ccc(F)cc3)n(Cc3ccc(OCCN4CCCCC4)cc3)c12 [MCAA-08]
Second: Nc1cccc2nc(-c3ccc(F)cc3)n(Cc3ccc(OCCC4CCCCC4)cc3)c12 [MCAA-09]
The EC50 of the first is lower: 9.59 µM for the first, over 10 µM for the second. The first is the more potent here.

First: O=C(O)c1ccc(-c2c(CC3CCCC3)c3ccc(F)cc3n2Cc2ccc(OCCN3CCCCC3)cc2)cc1 [MCAA-02]
Second: O=C(O)c1ccc(-c2c(CC3CCCC3)c3ccc(F)cc3n2Cc2ccc(OCCC3CCCCC3)cc2)cc1 [MCAA-03]
The EC50 of the first is higher: over 10 µM for the first, 8.43 µM for the second. The second is the more potent here.

Cc1c(-c2ccc(O)cc2)n(Cc2ccc(OCCC3CCCCC3)cc2)c2ccc(O)cc12 [MCAA-04] and Fc1ccc(-c2cc3sccc3n2Cc2ccc(OCCN3CCCCC3)cc2)cc1 [MCAA-06] cannot be ordered by EC50: over 10 µM for the first, over 10 µM for the second.

Test system: not listed separately
Experiment: XTT cell viability assay, Huh-luc/neo-ET
Assay type: cell-based
Conditions: human, Huh-luc/neo-ET cells, XTT, 72 hours, read-out: HCV 1b - TC50
Protocol: Twenty-four hours after seeding the cells, the cell culture supernatant was removed from each well and replaced with 175 μL fresh complete medium minus G418. Test compounds were evaluated at a high-test concentration of 10 μM and five serial half-logarithmic dilutions in three biological replicates. In three biological replicates, Sofosbuvir was evaluated in parallel at a high-test concentration of 1 μM and five serial half-logarithmic dilutions. Compounds were first serially diluted in DMSO to 400× of each final in-well concentration. An intermediate 8× solution was prepared in a complete medium and then added to the cells in a volume of 25 μL per well. A complete medium containing an equal percentage of DMSO (v/v) was added to vehicle-treated control cells. The final DMSO concentration was 0.25% (v/v) for all samples. The cells were incubated for an additional 72 hours at 37° C./5% CO2, then HCV replication was measured by luciferase activity and cell viability was assessed in parallel using an XTT colorimetric assay.
Huh-luc/neo-ET cell viability was measured at 72 hours after treatment using the tetrazolium dye XTT (2,3-bis(2-methoxy-4-nitro-5-sulfophenyI)-5[(phenylamino)carbonyl]-2H-tetrazolium hydroxide). Mitochondrial enzymes of metabolically active cells metabolize XTT-tetrazolium to a soluble formazan product. XTT solution was prepared fresh at 1 mg/mL in DMEM. Phenazine methosulfate (PMS) solution was prepared at 0.15 mg/mL in PBS and stored in the dark at −20° C. An XTT/PMS stock was prepared immediately before use by adding 40 μL of PMS per ml of XTT solution. Fifty microliters (50 μL) XTT/PMS were added per well, and the cells were incubated for 4 hours at 37° C. The cell culture plates were then sealed with adhesive plate sealers and shaken gently or inverted several times to mix the soluble formazan product. The formazan product was measured spectrophotometrically by absorbance at 450/650 nm on a Vmax plate reader (Molecular Devices). The raw data in Softmax Pro 5.4.2 software was imported into Microsoft Excel for further analysis. Data are presented as absorbance values (450/650 nm) or the percentage of viable cells relative to vehicle-treated control (mean+1—standard deviation, n=3 biological replicates from one independent experiment).

Nc1cccc2nc(-c3ccc(F)cc3)n(Cc3ccc(OCCN4CCCCC4)cc3)c12 [MCAA-08] and Nc1cccc2nc(-c3ccc(F)cc3)n(Cc3ccc(OCCC4CCCCC4)cc3)c12 [MCAA-09] cannot be ordered by CC50 at 72 h: over 10 µM for the first, over 10 µM for the second.

O=C(O)c1ccc(-c2c(CC3CCCC3)c3ccc(F)cc3n2Cc2ccc(OCCN3CCCCC3)cc2)cc1 [MCAA-02] and O=C(O)c1ccc(-c2c(CC3CCCC3)c3ccc(F)cc3n2Cc2ccc(OCCC3CCCCC3)cc2)cc1 [MCAA-03] cannot be ordered by CC50 at 72 h: over 10 µM for the first, over 10 µM for the second.

Fc1ccc(-c2cc3sccc3n2Cc2ccc(OCCC3CCCCC3)cc2)cc1 [MCAA-07] and Fc1ccc(-c2cc3sccc3n2Cc2ccc(OCCN3CCCCC3)cc2)cc1 [MCAA-06] cannot be ordered by CC50 at 72 h: over 10 µM for the first, over 10 µM for the second.

Cc1c(-c2ccc(O)cc2)n(Cc2ccc(OCCC3CCCCC3)cc2)c2ccc(O)cc12 [MCAA-04] and O=[N+]([O-])c1cccc2nc(-c3ccc(F)cc3)n(Cc3ccc(OCCC4CCCCC4)cc3)c12 [MCAA-14] cannot be ordered by CC50 at 72 h: over 10 µM for the first, over 10 µM for the second.

Test system: MCF7 wild-type cell lines
Experiment: MCF7 growth inhibition assay (Cell Titre Glo 2.0)
Assay type: cell-based
Conditions: Homo sapiens; MCF7 growth inhibition; 120 hours; read-out: MCF-7 IC50
Protocol: The growth inhibition properties of inhibitors on MCF7 wild-type cell lines were evaluated using the Cell Titre Glo 2.0 cell viability reagent. The assay utilized 384-well black clear bottom plates with 20 μl of MCF7 wild-type cell suspension mixed with reference/test compounds and 20 μl of Cell Titre Glo 2.0 reagent. Cells were seeded at a density of 1000 cells/well in DMEM High Glucose culture media+10% Fetal Bovine Serum (FBS). Staurosporine and Camptothecin served as positive controls for confirming cytotoxicity at a concentration of 30 μM, and vehicle control of 1% DMSO was used to standardize conditions across all test points. The assay and culture media both contained 1% DMSO. Assays were conducted in duplicate for each concentration of the test compounds. The incubation period for the assay was set at 120 hours, after which growth inhibition was assessed. Using a multi-mode reader, the assay readout was based on luminescence measured in Relative Light Units (RLUs). The viability luminescence signal was monitored continually from the same wells over an extended period, allowing for detailed analysis of cell viability. Measurements were taken using an integration time ranging from 0.25 to 1 second across plates designated for various time points.
Cells were maintained and seeded in 384 […] plates, maintaining 1000 cells/well. Seeded plates were incubated at 37° C., 5% CO2 for 16-18 hours to ensure optimal cell adherence and growth. Post-incubation, reference, and test compounds were added carefully to the wells for further processing. Plates were incubated again at 37° C., 5% CO2 for 120 hours (5 days) to allow compound effects. This was followed by the addition of CTG reagent as per the kit's instruction protocol for 30 minutes and RLU data to be recorded. Post plate read data to be analyzed using GraphPad Prism for software IC50 value generation.
Next, the NCEs were tested for selective estrogen regulation modulation activity by using a growth inhibition assay. The assay is performed on MCF7 cells, which are derived from a hormone-dependent breast cancer that stops growing upon estrogen receptor inhibition. […] Staurosporine and Camptothecin served as positive controls for cytotoxicity and 1% DMSO as the vehicle control.

First: Nc1cccc2nc(-c3ccc(F)cc3)n(Cc3ccc(OCCN4CCCCC4)cc3)c12 [MCAA-08]
Second: Nc1cccc2nc(-c3ccc(F)cc3)n(Cc3ccc(OCCC4CCCCC4)cc3)c12 [MCAA-09]
The IC50 of the first is higher: over 10 µM for the first, 1.21 µM for the second. The second is the more potent here.

O=C(O)c1ccc(-c2c(CC3CCCC3)c3ccc(F)cc3n2Cc2ccc(OCCN3CCCCC3)cc2)cc1 [MCAA-02] and O=C(O)c1ccc(-c2c(CC3CCCC3)c3ccc(F)cc3n2Cc2ccc(OCCC3CCCCC3)cc2)cc1 [MCAA-03] cannot be ordered by IC50: over 10 µM for the first, over 10 µM for the second.

Going from Fc1ccc(-c2cc3sccc3n2Cc2ccc(OCCC3CCCCC3)cc2)cc1 [MCAA-07] to Fc1ccc(-c2cc3sccc3n2Cc2ccc(OCCN3CCCCC3)cc2)cc1 [MCAA-06], the IC50 falls from over 10 µM to 3.77 µM. The second is the more potent here.

First: Cc1c(-c2ccc(O)cc2)n(Cc2ccc(OCCC3CCCCC3)cc2)c2ccc(O)cc12 [MCAA-04]
Second: O=[N+]([O-])c1cccc2nc(-c3ccc(F)cc3)n(Cc3ccc(OCCC4CCCCC4)cc3)c12 [MCAA-14]
The IC50 of the first is 2-fold lower: 2.24 µM for the first, 4.38 µM for the second.

Test system: not listed separately
Experiment: Cytotoxicity, XTT, MRC-5
Conditions: human

Nc1cccc2nc(-c3ccc(F)cc3)n(Cc3ccc(OCCN4CCCCC4)cc3)c12 [MCAA-08] and Nc1cccc2nc(-c3ccc(F)cc3)n(Cc3ccc(OCCC4CCCCC4)cc3)c12 [MCAA-09] cannot be ordered by CC50 at 6 days: over 5 µM for the first, over 5 µM for the second.

First: O=C(O)c1ccc(-c2c(CC3CCCC3)c3ccc(F)cc3n2Cc2ccc(OCCN3CCCCC3)cc2)cc1 [MCAA-02]
Second: O=C(O)c1ccc(-c2c(CC3CCCC3)c3ccc(F)cc3n2Cc2ccc(OCCC3CCCCC3)cc2)cc1 [MCAA-03]
The CC50 at 6 days of the first is higher: over 5 µM for the first, 2.47 µM for the second.

Compared with Fc1ccc(-c2cc3sccc3n2Cc2ccc(OCCC3CCCCC3)cc2)cc1 [MCAA-07], Fc1ccc(-c2cc3sccc3n2Cc2ccc(OCCN3CCCCC3)cc2)cc1 [MCAA-06] is lower in CC50 at 6 days: over 5 µM for the first, 1.53 µM for the second.

Compared with Cc1c(-c2ccc(O)cc2)n(Cc2ccc(OCCC3CCCCC3)cc2)c2ccc(O)cc12 [MCAA-04], O=[N+]([O-])c1cccc2nc(-c3ccc(F)cc3)n(Cc3ccc(OCCC4CCCCC4)cc3)c12 [MCAA-14] is higher in CC50 at 6 days: 2.7 µM for the first, over 5 µM for the second.

With CCC(CC)COC(=O)[C@H](C)N[P@](=O)(OC[C@H]1O[C@@](C#N)(c2ccc3c(N)ncnn23)[C@H](O)[C@@H]1O)Oc1ccccc1 [Remdesivir, reference compound] the CC50 at 6 days was over 1 µM.
